{"source": "patent US20250320227A1", "about": "“MACROCYCLIC OREXIN RECEPTOR AGONISTS AND USES THEREOF” (Jazz Pharmaceuticals Ireland Limited, priority 2022, published 2025)"}
{"target": "T1, human recombinant OX2 (hOX2) receptors expressed in CHO cells (Homo sapiens, UniProt O43614)", "T1 construct": "host or cells: CHO cells (hOX2-CHO)", "T1 sequence (O43614 1-444)": "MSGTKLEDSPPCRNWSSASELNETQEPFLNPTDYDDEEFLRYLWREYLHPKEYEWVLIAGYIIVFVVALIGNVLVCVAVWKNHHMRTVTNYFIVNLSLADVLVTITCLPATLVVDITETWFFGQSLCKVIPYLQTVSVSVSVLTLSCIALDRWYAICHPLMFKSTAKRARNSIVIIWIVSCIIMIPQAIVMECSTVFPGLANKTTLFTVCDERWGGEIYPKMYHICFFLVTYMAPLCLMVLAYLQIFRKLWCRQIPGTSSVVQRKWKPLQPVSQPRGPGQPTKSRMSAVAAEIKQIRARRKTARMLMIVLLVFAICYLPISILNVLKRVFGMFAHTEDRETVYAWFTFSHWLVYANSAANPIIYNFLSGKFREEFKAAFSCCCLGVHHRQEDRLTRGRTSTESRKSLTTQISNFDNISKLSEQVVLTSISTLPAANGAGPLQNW", "assay": "IP-1 accumulation assay (IP-One HTRF) in hOX2-CHO cells", "type": "cell-based", "details": "60 min incubation at 37° C., mean of at least two independent experiments, read-out: EC50_OX2R Category", "experimental": "The accumulation of Inositol-1 Monophosphate (IP-1) was measured using IP-One HTRF® Terbium cryptate based assay (Cisbio) in human recombinant OX1 (hOX1) and at OX2 (hOX2) receptors expressed in CHO cells (DiscoverX) according to the manufacturer's instructions for cells tested in suspension.\nhOX1-CHO and hOX2-CHO cells were seeded into white 384-well plates at a density of 20,000 cells/well in Hank's Balanced Salt Solution (HBSS) containing 20 mM HEPES pH 7.4, 50 mM, LiCl and 0.1% and Bovine Serum Albumin (BSA).\nCompounds of disclosure were tested in an 11 points concentration response curve (CRC) serially diluted in neat DMSO at 200 fold concentrations and added by Echo acoustic liquid handling (Labcyte) to the cells (0.5% DMSO final in the assay). After 60 min of incubation at 37° C. detection reagents, IP1-d2 tracer and anti-IP1-cryptate were diluted in lysis buffer according to the manufacturer's descriptions and added to the cells.\nFollowing 60 min incubation at room temperature, time-resolved fluorescence (HTRF) was measured at 615 nm and 665 nm by Envision Multilabel reader (Perkin Elmer) and the HTRF ratio (A665/A615×10^4) was calculated.\nThe IP-1 accumulation response was expressed as percentage of the maximal OX-A response.\nCurve fitting and EC50 estimations were carried out using a four-parameter logistic model using XLfit Software. Mean data of EC50 are calculated from at least two independent experiments performed in duplicates", "units": {"EC50": "nM"}}
{"smiles": "O=C1COC[C@@]2(CCN3C(=O)CCOc4ccccc4[C@H]4CC[C@H](CC4)OC[C@H]32)N1", "note": "(single isomer, unassigned) [Example 1a]", "EC50": "< 100"}
{"smiles": "O=C1COC[C@]2(CCN3C(=O)CCOc4ccccc4[C@H]4CC[C@H](CC4)OC[C@@H]32)N1", "note": "(single isomer, unassigned) [Example 1b]", "EC50": "> 10000"}
{"smiles": "C[C@H]1CC(=O)N2CC[C@]3(COCC(=O)N3)[C@H]2CO[C@H]2CC[C@H](CC2)c2ccccc2O1", "note": "(single isomer, unassigned) [Example 4a]", "EC50": "> 10000"}
{"smiles": "C[C@H]1CC(=O)N2CC[C@@]3(COCC(=O)N3)[C@@H]2CO[C@H]2CC[C@H](CC2)c2ccccc2O1", "note": "(single isomer, unassigned) [Example 4b, (1′s, 3S,9′S,16′R,19′s)-9′-methyl-8′,18′-dioxa-12′-azaspiro[morpholine-3,15′-tetracyclo[17.2.2.0^2,70.0^12,16]tricosane]-2′(7′),3′,5′-triene-5,11′-dione]", "EC50": "100 to 1000"}
{"smiles": "C[C@@H]1CC(=O)N2CC[C@@]3(COCC(=O)N3)[C@@H]2CO[C@H]2CC[C@H](CC2)c2ccccc2O1", "note": "(single isomer, unassigned) [Example 4c]", "EC50": "100 to 1000"}
{"smiles": "C[C@@H]1CC(=O)N2CC[C@]3(COCC(=O)N3)[C@H]2CO[C@H]2CC[C@H](CC2)c2ccccc2O1", "note": "(single isomer, unassigned) [Example 4d]", "EC50": "> 10000"}
{"smiles": "C[C@@H]1COc2ccccc2[C@H]2CC[C@H](CC2)OC[C@H]2N(CC[C@]23COCC(=O)N3)C1=O", "note": "(single isomer, unassigned) [Example 5a]", "EC50": "> 10000"}
{"smiles": "C[C@H]1COc2ccccc2[C@H]2CC[C@H](CC2)OC[C@H]2N(CC[C@]23COCC(=O)N3)C1=O", "note": "(single isomer, unassigned) [Example 5b]", "EC50": "> 10000"}
{"smiles": "O=C1COC[C@@]2(CCN3C(=O)CCOc4cccc(F)c4[C@H]4CC[C@H](CC4)OC[C@H]32)N1", "note": "(single isomer, unassigned) [Example 10a]", "EC50": "< 100"}
{"smiles": "O=C1COC[C@]2(CCN3C(=O)CCOc4cccc(F)c4[C@H]4CC[C@H](CC4)OC[C@@H]32)N1", "note": "(single isomer, unassigned) [Example 10b]", "EC50": "> 10000"}
{"smiles": "C[C@@H]1C[C@@]2(COCC(=O)N2)[C@@H]2CO[C@H]3CC[C@H](CC3)c3ccccc3OCCC(=O)N12", "note": "(single isomer, unassigned) [Example 13a]", "EC50": "< 100"}
{"smiles": "C[C@@H]1C[C@]2(COCC(=O)N2)[C@H]2CO[C@H]3CC[C@H](CC3)c3ccccc3OCCC(=O)N12", "note": "(single isomer, unassigned) [Example 13b]", "EC50": "100 to 1000"}
{"smiles": "C[C@@H]1C[C@@]2(COCC(=O)N2)[C@@H]2CO[C@H]3CC[C@H](CC3)c3cccc(F)c3OCC(=O)N12", "note": "(single isomer, unassigned) [Example 15a]", "EC50": "< 100"}
{"smiles": "C[C@@H]1C[C@]2(COCC(=O)N2)[C@H]2CO[C@H]3CC[C@H](CC3)c3cccc(F)c3OCC(=O)N12", "note": "(single isomer, unassigned) [Example 15b]", "EC50": "1000 to 10000"}
{"smiles": "C[C@@H]1C[C@@]2(COCC(=O)N2)[C@@H]2CO[C@H]3CC[C@H](CC3)c3cc(F)cc(F)c3OCC(=O)N12", "note": "(single isomer, unassigned) [Example 16a]", "EC50": "< 100"}
{"smiles": "C[C@@H]1C[C@]2(COCC(=O)N2)[C@H]2CO[C@H]3CC[C@H](CC3)c3cc(F)cc(F)c3OCC(=O)N12", "note": "(single isomer, unassigned) [Example 16b]", "EC50": "> 10000"}
{"smiles": "C[C@@H]1C[C@]2(COCC(=O)N2)[C@H]2CO[C@H]3CC[C@H](CC3)c3c(F)cccc3OCC(=O)N12", "note": "(single isomer, unassigned) [Example 17b]", "EC50": "1000 to 10000"}
{"smiles": "C[C@@H]1C[C@@]2(COCC(=O)N2)[C@@H]2CO[C@H]3CC[C@H](CC3)c3cc(F)ccc3OCC(=O)N12", "note": "(single isomer, unassigned) [Example 18a]", "EC50": "< 100"}
{"smiles": "C[C@@H]1C[C@]2(COCC(=O)N2)[C@H]2CO[C@H]3CC[C@H](CC3)c3cc(F)ccc3OCC(=O)N12", "note": "(single isomer, unassigned) [Example 18b]", "EC50": "> 10000"}
{"smiles": "C[C@@H]1C[C@@]2(COCC(=O)N2)[C@@H]2CO[C@H]3CC[C@H](CC3)c3ccc(F)cc3OCC(=O)N12", "note": "(single isomer, unassigned) [Example 19a]", "EC50": "< 100"}
{"smiles": "C[C@@H]1C[C@@]2(COCC(=O)N2)[C@@H]2CO[C@H]3CC[C@H](CC3)c3cccc(Cl)c3OCC(=O)N12", "note": "(single isomer, unassigned) [Example 20a]", "EC50": "1000 to 10000"}
{"smiles": "C[C@@H]1C[C@]2(COCC(=O)N2)[C@H]2CO[C@H]3CC[C@H](CC3)c3cccc(Cl)c3OCC(=O)N12", "note": "(single isomer, unassigned) [Example 20b]", "EC50": "> 10000"}
{"smiles": "C[C@@H]1C[C@@]2(COCC(=O)N2)[C@@H]2CO[C@H]3CC[C@H](CC3)c3cc(Cl)ccc3OCC(=O)N12", "note": "(single isomer, unassigned) [Example 21a]", "EC50": "100 to 1000"}
{"smiles": "C[C@@H]1C[C@]2(COCC(=O)N2)[C@H]2CO[C@H]3CC[C@H](CC3)c3cc(Cl)ccc3OCC(=O)N12", "note": "(single isomer, unassigned) [Example 21b]", "EC50": "> 10000"}
{"smiles": "Cc1ccc2c(c1)[C@H]1CC[C@H](CC1)OC[C@@H]1N(C(=O)CO2)[C@H](C)C[C@@]12COCC(=O)N2", "note": "(single isomer, unassigned) [Example 22a]", "EC50": "< 100"}
{"smiles": "Cc1ccc2c(c1)[C@H]1CC[C@H](CC1)OC[C@H]1N(C(=O)CO2)[C@H](C)C[C@]12COCC(=O)N2", "note": "(single isomer, unassigned) [Example 22b]", "EC50": "> 10000"}
{"smiles": "C[C@@H]1C[C@@]2(COCC(=O)N2)[C@@H]2CO[C@H]3CC[C@H](CC3)c3cccnc3OCC(=O)N12", "note": "(single isomer, unassigned) [Example 23a]", "EC50": "100 to 1000"}
{"smiles": "C[C@@H]1C[C@]2(COCC(=O)N2)[C@H]2CO[C@H]3CC[C@H](CC3)c3cccnc3OCC(=O)N12", "note": "(single isomer, unassigned) [Example 23b]", "EC50": "1000 to 10000"}
{"smiles": "C[C@@H]1C[C@]2(COCC(=O)N2)[C@H]2CO[C@H]3CC[C@H](CC3)c3cccc(F)c3OCCC(=O)N12", "note": "(single isomer, unassigned) [Example 24b]", "EC50": "100 to 1000"}
{"smiles": "O=C1COC[C@@]2(CCCN3C(=O)COc4ccccc4[C@H]4CC[C@H](CC4)OC[C@H]32)N1", "note": "(single isomer, unassigned) [Example 32a]", "EC50": "< 100"}
{"smiles": "O=C1COC[C@]2(CCCN3C(=O)COc4ccccc4[C@H]4CC[C@H](CC4)OC[C@@H]32)N1", "note": "(single isomer, unassigned) [Example 32b]", "EC50": "> 10000"}
{"smiles": "O=C1COC[C@@]2(CCCN3C(=O)CCOc4ccccc4[C@H]4CC[C@H](CC4)OC[C@H]32)N1", "note": "(single isomer, unassigned) [Example 33a]", "EC50": "< 100"}
{"smiles": "O=C1COC[C@]2(CCCN3C(=O)CCOc4ccccc4[C@H]4CC[C@H](CC4)OC[C@@H]32)N1", "note": "(single isomer, unassigned) [Example 33b]", "EC50": "100 to 1000"}
{"smiles": "CC1Oc2ccccc2[C@H]2CC[C@H](CC2)OC[C@@H]2N(CCC[C@@]23COCC(=O)N3)C1=O", "note": "(single isomer, unassigned) [Example 35a]", "EC50": "< 100"}
{"smiles": "CC1Oc2ccccc2[C@H]2CC[C@H](CC2)OC[C@H]2N(CCC[C@]23COCC(=O)N3)C1=O", "note": "(single isomer, unassigned) [Example 35b]", "EC50": "> 10000"}
